Columns and labels:
[1] = molecular target: T1, KRas^G12V (Homo sapiens, UniProt P01116, G12V); assay: KRas binding assay (TR-FRET tracer displacement), KRas G12V
T1 construct: Biotinylated KRas (corresponding to amino acids 1-169, produced at Accelegan Inc.); biotin (biotinylated); purchased Accelegan Inc

[2] = test system: KRas-mediated phosphorylation of ERK in H727 cells; assay: Inhibition of KRas-mediated phosphorylation of ERK (Cisbio HTRF pERK), H727 cells; assay type: cell-based; conditions: for IC50: HTRF pERK; for inhibition at 0.1 µM: NCI-H727, 3 h
Procedure, shortened: (§1)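 HTRF readout of phospho-ERK in cell lysates after 3 hrs of compound exposure. Dosing: 10 uM top, 3-fold steps, 10 doses, final DMSO 0.8%. Min control: 0.2 uM Trametinib. Lysis ran 40 mins at 4° C, and antibody detection 2 hrs at room temperature.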

[3] = test system: KRas-mediated phosphorylation of ERK in AsPC-1 cells; assay: Inhibition of KRas-mediated phosphorylation of ERK (Cisbio HTRF pERK), AsPC-1 cells; assay type: cell-based; conditions: for IC50: HTRF pERK; for inhibition at 0.1 µM: ASPC1, 3 h
Procedure, shortened: as §1

[4] = test system: KRas-mediated phosphorylation of ERK in A549 cells; assay: Inhibition of KRas-mediated phosphorylation of ERK (Cisbio HTRF pERK), A549 cells; assay type: cell-based; conditions: for inhibition at 0.1 µM / IC50: Homo sapiens; for inhibition at 0.1 µM: A549, 3 h; for IC50: HTRF pERK
Method: (§2) Inhibition of KRas Phosphorylation of ERK (HTRF) by Exemplary Compounds of Formula (I) Cisbio HTRF Advanced PERK Assay Catalog #64[…] […] Add 10 mL of media to stop trypsinizing. Pipette the cells into a conical bottom 50 mL centrifuge tube and centrifuge 5 min×1000 rpm. […] Re-suspend the cell pellet in media, take a cell count, and then adjust the cell density using fresh media. […] Seed 6,000 cells into cell culture plate with 50 μL media. […] Use Tecan to complete the compound addition. Compounds start from 10 uM top, 3-fold dilution, and 10 doses. The final DMSO concentration is 0.8%. Dispensed 0.2 uM Trametinib as Min control. […] Incubate cell plate for 3 hrs in the incubator. […] Dilute 1 volume of 4× lysis buffer with 3 volumes of deionized water. […] Keep lysis buffer on the ice. […] At the end of the compound treatment, flick-off the media. […] Add 35 μL of lysis buffer per well using a Multidrop Combi. Then place on a plate agitator shaking at 300 rpm at 4° C. for 40 mins. […] Make up the HTRF antibody buffer. For each assay plate, mix 50 μL of d2-conjugate antibody with 950 μL of detection buffer. Similarly, mix 50 μL of Cryptate antibody with 950 μL of detection buffer. Then mix the two diluted antibodies together. […] Dispense 3.4 μL the antibody buffer to wells of an empty assay plate. Seal the plate and centrifuge plate 30 sec×1000 rpm. […] At the end of the 4° C. lysis, centrifuge the lysate plates 3 mins×1500 rpm. […] Use the Bravo to transfer 13.6 μL of lysate from cell culture plate to assay plate. Then incubate assay plate for 2 hrs at room temperature. 8. At the end of incubation, read plate on the Envision after centrifuging plate 30 sec×1000 rpm.

[5] = test system: KRas-mediated phosphorylation of ERK in HCT116 cells; assay: Inhibition of KRas-mediated phosphorylation of ERK (Cisbio HTRF pERK), HCT116 cells; assay type: cell-based; conditions: for inhibition at 0.1 µM / IC50: Homo sapiens; for inhibition at 0.1 µM: HCT-116, 3 h; for IC50: HCT-116, HTRF pERK
Method: as §2

[6] = test system: KRas-mediated phosphorylation of ERK in H358 cells; assay: Inhibition of KRas-mediated phosphorylation of ERK (Cisbio HTRF pERK), H358 cells; assay type: cell-based; conditions: for inhibition at 0.1 µM / IC50: Homo sapiens; for inhibition at 0.1 µM: NCI-H358, 3 h; for IC50: NCI-H358, HTRF pERK
Method: as §2

[7] = molecular target: T2, KRas^G12R (Homo sapiens, UniProt P01116, G12R); assay: KRas binding assay (TR-FRET tracer displacement), KRas G12R
T2 construct: Biotinylated KRas (corresponding to amino acids 1-169, produced at Accelegan Inc.); biotin (biotinylated); purchased Accelegan Inc
T2 sequence (P01116 1-169 isoform P01116-2 G12R): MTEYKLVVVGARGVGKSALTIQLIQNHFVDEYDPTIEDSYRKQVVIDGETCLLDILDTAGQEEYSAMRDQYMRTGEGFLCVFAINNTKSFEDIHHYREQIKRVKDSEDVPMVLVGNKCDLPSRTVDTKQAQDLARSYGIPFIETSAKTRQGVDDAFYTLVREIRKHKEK

[8] = molecular target: T3, KRas^G12D (Homo sapiens, UniProt P01116, G12D); assay: KRas binding assay (TR-FRET tracer displacement), KRas G12D
T3 construct: Biotinylated KRas (corresponding to amino acids 1-169, produced at Accelegan Inc.); biotin (biotinylated); purchased Accelegan Inc
T3 sequence (P01116 1-169 isoform P01116-2 G12D): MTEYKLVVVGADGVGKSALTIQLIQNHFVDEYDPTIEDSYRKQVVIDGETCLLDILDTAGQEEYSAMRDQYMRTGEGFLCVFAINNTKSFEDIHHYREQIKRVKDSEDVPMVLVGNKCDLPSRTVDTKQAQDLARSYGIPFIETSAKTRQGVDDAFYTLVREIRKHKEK

[9] = test system: KRas-mediated phosphorylation of ERK in H460 cells; assay: Inhibition of KRas-mediated phosphorylation of ERK (Cisbio HTRF pERK), H460 cells; assay type: cell-based; conditions: for inhibition at 0.1 µM / IC50: Homo sapiens; for inhibition at 0.1 µM: NCI-H460, 3 h; for IC50: NCI-H460, HTRF pERK
Method: as §2

[10] = single point, 100 nM compound, 3 hrs, 0.1 µM
[11] = Homo sapiens, NCI-H727, H727 cells
[12] = Homo sapiens, ASPC1, AsPC-1 cells
[13] = single point, 100 nM compound, 3 hrs
[14] = Homo sapiens, single point, 100 nM compound, 3 hrs, H727 cells
[15] = Homo sapiens, single point, 100 nM compound, 3 hrs, AsPC-1 cells

T1 sequence (P01116 1-169 isoform P01116-2 G12V): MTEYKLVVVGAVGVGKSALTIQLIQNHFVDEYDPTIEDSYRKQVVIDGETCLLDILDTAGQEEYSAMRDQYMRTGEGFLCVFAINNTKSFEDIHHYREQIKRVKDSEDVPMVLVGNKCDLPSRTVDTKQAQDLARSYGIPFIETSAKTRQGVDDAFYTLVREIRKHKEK

| SMILES | IC50 [1] [nM] | IC50 [7] [nM] | IC50 [8] [nM] | IC50 [2, 11] [nM] | IC50 [3, 12] [nM] | inhibition at 0.1 µM [4, 13] [%] | inhibition at 0.1 µM [5, 13] [%] | inhibition at 0.1 µM [6, 13] [%] | inhibition at 0.1 µM [9, 13] [%] | further results |
| --- | --- | --- | --- | --- | --- | --- | --- | --- | --- | --- |
| CCc1c(F)ccc2cc(O)cc(-c3ncc4c(N5CC6CCC(C5)C6C#N)nc(OC[C@@]56CCCN5C[C@H](F)C6)nc4c3F)c12 (single isomer, unassigned) [Example 560] | 85 | 182 | 262 |  |  |  |  |  |  | IC50 ([2]; H727 cells): 724 nM; Inhibition (HTRF % at 100 nM) of KRas-mediated Phosphorylation of ERK, H727 ([2]; single point, 100 nM compound, 3 hrs, H727 cells, 0.1 µM): 8%; IC50 ([3]; AsPC-1 cells): 3100 nM; Inhibition (HTRF % at 100 nM) of KRas-mediated Phosphorylation of ERK, AsPC-1 ([3]; single point, 100 nM compound, 3 hrs, AsPC-1 cells, 0.1 µM): 5%; Inhibition (HTRF % at 100 nM) of KRas-mediated Phosphorylation of ERK, A549 [4, 10]: 15%; Inhibition (HTRF % at 100 nM) of KRas-mediated Phosphorylation of ERK, HCT116 [5, 10]: 12%; Inhibition (HTRF % at 100 nM) of KRas-mediated Phosphorylation of ERK, H358 [6, 10]: 4%; Inhibition (HTRF % at 100 nM) of KRas-mediated Phosphorylation of ERK, H460 [9, 10]: 10% |
| CCc1c(F)ccc2cc(O)cc(-c3ncc4c(N5CCC[C@@](C)(O)C5)nc(N5CC(C)(N)C5)nc4c3F)c12 [Example 530, (R)-1-(2-(3-amino-3-methylazetidin-1-yl)-7-(8-ethyl-7-fluoro-3-hydroxynaphthalen-1-yl)-8-fluoropyrido[4,3-d]pyrimidin-4-yl)-3-methylpiperidin-3-ol] | 66 | 91 | 59 | 4390 | 2770 | 15 | -6 | 6 | 18 |  |
| CCc1c(F)ccc2cc(O)cc(-c3ncc4c(N5CCC[C@@](C)(O)C5)nc(N5CC(N(C)C)C5)nc4c3F)c12 [Example 533, (R)-1-(2-(3-(dimethylamino)azetidin-1-yl)-7-(8-ethyl-7-fluoro-3-hydroxynaphthalen-1-yl)-8-fluoropyrido[4,3-d]pyrimidin-4-yl)-3-methylpiperidin-3-ol] | 105 | 119 | 72 | 1970 | 1500 | 27 | 8 | -7 | 8 |  |
| CCc1c(F)ccc2cc(O)cc(-c3ncc4c(N5CCn6cc(C(=O)N(C)C)nc6C5)nc(OC[C@@]56CCCN5C[C@H](F)C6)nc4c3F)c12 [Example 646, 7-(7-(8-ethyl-7-fluoro-3-hydroxynaphthalen-1-yl)-8-fluoro-2-(((2R,7aS)-2-fluorohexahydro-1H-pyrrolizin-7a-yl)methoxy)pyrido[4,3-d]pyrimidin-4-yl)-N,N-dimethyl-5,6,7,8-tetrahydroimidazo[1,2-a]pyrazine-2-carboxamide] |  |  |  | > 10000 | 8480 | -24 | -9 | 2 | -9 | inhibition at 0.1 µM [2, 14]: -6%; inhibition at 0.1 µM [3, 15]: -12% |
| CCc1c(F)ccc2cc(O)cc(-c3ncc4c(N5CCCn6nc(P(C)(C)=O)cc6C5)nc(OC[C@@]56CCCN5C[C@H](F)C6)nc4c3F)c12 [Example 660, (5-(7-(8-ethyl-7-fluoro-3-hydroxynaphthalen-1-yl)-8-fluoro-2-(((2R,7aS)-2-fluorohexahydro-1H-pyrrolizin-7a-yl)methoxy)pyrido[4,3-d]pyrimidin-4-yl)-5,6,7,8-tetrahydro-4H-pyrazolo[1,5-a][1,4]diazepin-2-yl)dimethylphosphine oxide] | 7 | 2 | 2 | > 10000 | 8030 | -41 |  | -20 |  |  |
| CCc1c(F)ccc2cc(O)cc(-c3ncc4c(N5CC6CNCC6C5CO)nc(OC[C@@]56CCCN5C[C@H](F)C6)nc4c3F)c12 (stereo partly drawn) [Example 890, 5-ethyl-6-fluoro-4-(8-fluoro-2-(((2R,7aS)-2-fluorotetrahydro-1H-pyrrolizin-7a(5H)-yl)methoxy)-4-(1-(hydroxymethyl)hexahydropyrrolo[3,4-c]pyrrol-2 (1H)-yl)pyrido[4,3-d]pyrimidin-7-yl)naphthalen-2-ol] |  |  |  | > 10000 | > 10000 |  |  |  |  | IC50 [4]: > 10000 nM; IC50 [5]: > 10000 nM; IC50 [6]: > 10000 nM; IC50 [9]: > 10000 nM |

More lines, main results first:

| IC50 [1] [nM] | IC50 [7] [nM] | IC50 [8] [nM] | IC50 [2, 11] [nM] | IC50 [3, 12] [nM] | SMILES | inhibition at 0.1 µM [4, 13] [%] | inhibition at 0.1 µM [5, 13] [%] | inhibition at 0.1 µM [6, 13] [%] | inhibition at 0.1 µM [9, 13] [%] | further results |
| --- | --- | --- | --- | --- | --- | --- | --- | --- | --- | --- |
| 17 | 38 | 106 | 605 | 985 | CCc1c(F)ccc2cc(O)cc(-c3ncc4c(NCc5cc(C(=O)N(C)C)nn5C5CCS(=O)(=O)C5)nc(OC[C@@]56CCCN5C[C@H](F)C6)nc4c3F)c12 (single isomer, unassigned) [Example 694] | -8 | -10 | 9 | -3 |  |
|  |  |  | 15 | 12 | CCc1c(F)ccc2cc(O)cc(-c3ncc4c(N5CCOCC6(CCO6)C5)nc(OC[C@@]56CCCN5C[C@H](F)C6)nc4c3F)c12 (stereo partly drawn) [Example 573, 5-ethyl-6-fluoro-4-(8-fluoro-2-(((2R,7aS)-2-fluorotetrahydro-1H-pyrrolizin-7a(5H)-yl)methoxy)-4-(1,6-dioxa-9-azaspiro[3.6]decan-9-yl)pyrido[4,3-d]pyrimidin-7-yl)naphthalen-2-ol] | 62 | 53 | 94 | 92 |  |
|  |  |  | 21 | 115 | CCNC(=O)c1cc2n(n1)CCCCN(c1nc(OC[C@@]34CCCN3C[C@H](F)C4)nc3c(F)c(-c4cc(O)cc5ccc(F)c(CC)c45)ncc13)C2 [Example 673, N-ethyl-5-(7-(8-ethyl-7-fluoro-3-hydroxynaphthalen-1-yl)-8-fluoro-2-(((2R,7aS)-2-fluorotetrahydro-1H-pyrrolizin-7a(5H)-yl)methoxy)pyrido[4,3-d]pyrimidin-4-yl)-4,5,6,7,8,9-hexahydropyrazolo[1,5-a][1,4]diazocine-2-carboxamide] | 43 | 16 | 88 | 8 | inhibition at 0.1 µM [2, 14]: 53%; inhibition at 0.1 µM [3, 15]: 8% |
|  |  |  | 1210 | 328 | CCc1c(F)ccc2cc3[nH]ncc3c(-c3ncc4c(N5CCCC6(CNS(=O)(=O)N6)C5)nc(OC[C@@]56CCCN5C[C@H](F)C6)nc4c3F)c12 (stereo partly shown) [Example 872] |  |  |  |  | IC50 [4]: 581 nM; IC50 [5]: 636 nM; IC50 [6]: 197 nM; IC50 [9]: 318 nM |
|  |  |  | 571 | 580 | CCc1c(F)ccc2cc(O)cc(-c3ncc4c(N5CC6CCC(CCC(=O)N(C)C)(C6)C5)nc(OC[C@@]56CCCN5C[C@H](F)C6)nc4c3F)c12 (stereo partly drawn) [Example 913, 3-(3-(7-(8-ethyl-7-fluoro-3-hydroxynaphthalen-1-yl)-8-fluoro-2-(((2R,7aS)-2-fluorotetrahydro-1H-pyrrolizin-7a(5H)-yl)methoxy)pyrido[4,3-d]pyrimidin-4-yl)-3-azabicyclo[3.2.1]octan-1-yl)-N,N-dimethylpropanamide] |  |  |  |  | IC50 [4]: 246 nM; IC50 [5]: 211 nM; IC50 [6]: 146 nM; IC50 [9]: 112 nM |

Source: patent US20260015350A1, “AZAQUINAZOLINE PAN-KRAS INHIBITORS” (Mirati Therapeutics, Inc., priority 2022, published 2026)
